PubChem BioAssay AID179 (DTP/NCI, 2004)
Values joined by “and” are separate entries in the source; they are usually repeats but may differ in a detail not shown here. Equal values may be shown once. Active and inactive are the calls of the source.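 The calls were made as follows: active = compounds giving half or more protection of infected cells from virus-caused growth loss, again on retest; inactive = the rest.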

System: CEM cells HIV-1 protection, formazan growth assay
Assay: NCI AIDS Antiviral Assay
Conditions: for IC50: measured here: growth of uninfected CEM cells
How it was run: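 Human CEM cells, uninfected and HIV-1-infected, received five drug concentrations, and growth was read by soluble formazan assay. Compounds giving at least 50% protection were retested; reproducible 100% protection defined confirmed active.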

## CN(C)Cc1cc(C(=O)/C=C/c2ccc(F)cc2)cc(CN(C)C)c1O
  EC50: > 200 µM
  IC50: 19.1 µM

## CSC(=NCCc1c[nH]c2ccccc12)NC#N
  EC50: > 200 µM
  IC50: > 200 µM

## CCCCCCCCSC(=O)NCCCC
  outcome: inactive

## CCOC(=O)CSc1[nH]c(NC(=S)Nc2ccccc2)c(C(N)=O)c1C(N)=O
  EC50: > 200 µM
  IC50: 97.7 µM

## COc1ccc(C2Oc3cc(OC)c(O)c(C)c3[C@H]2C)cc1 (stereo partly drawn)
  EC50: > 45.7 µM
  IC50: 30.9 µM

## CC(CCNC(=O)c1ccccc1)(CCNC(=O)c1ccccc1)[N+](=O)[O-]
  EC50: > 200 µM
  IC50: > 200 µM

## CN(C)c1ccc(/C=C/C=C(/C#N)c2ccccc2)cc1
  EC50: > 100 µM
  IC50: 12.3 µM

## O=[N+]([O-])c1cccc2nc3ccccc3c(NCCNCCO)c12
  EC50: > 2 µM
  IC50: 0.0316 µM

## O=C(/C=C/C(Cl)(Cl)Cl)Nc1ccc(Cl)cc1
  EC50: > 200 µM
  IC50: 10.2 µM

## COc1ccc(C(=O)c2ccc(OC)c(S(=O)(=O)O)c2)cc1S(=O)(=O)O
  EC50: > 575 µM
  IC50: > 575 µM

## O=P(O)(O)c1ccc(-c2ccc(I)cc2)cc1
  EC50: > 200 µM
  IC50: > 200 µM

## CC(=O)c1c(-c2ccco2)c(C#N)c(=S)n(C2OC(CO)C(O)C(O)C2O)c1-c1ccccc1 (stereo not drawn)
  EC50: > 200 µM
  IC50: 75.9 µM

## COC(C)(C)C1=CCC(C)CC1 (stereo not drawn)
  EC50: > 100 µM
  IC50: > 100 µM

## O=C(O)c1cc(O)ccc1O
  EC50: > 200 µM
  IC50: > 200 µM

## CCCCc1ccc(OC2OC(COC(C)=O)C(OC(C)=O)C(OC(C)=O)C2OC(C)=O)cc1 (stereo not drawn)
  EC50: > 93.3 µM
  IC50: 49 µM and > 93.3 µM

## NC1CC=C(COC(=O)C(O)(c2ccccc2)C2CC2)CC1 (stereo not drawn)
  EC50: > 200 µM
  IC50: > 200 µM

## S=C(Nc1ccc2c(c1)oc1ccccc12)c1cccs1
  EC50: > 200 µM
  IC50: > 200 µM

## COc1ccc(/C=C2\CCc3cc(OC)c(OC)cc3C2=O)cc1
  outcome: inactive

## COc1cccc(C2c3cc4c(cc3OC(N3CCCC3)C2C)OCO4)c1 (stereo not drawn)
  EC50: > 200 µM
  IC50: 3.8 µM

## O=c1c2ccccc2n2n1Cc1ccccc1C2
  EC50: > 200 µM
  IC50: 102 µM

## NS(=O)(=O)c1cc[n+]([O-])c2ccccc12
  EC50: > 200 µM
  IC50: 55 µM

## CC(=O)OC(=C(C#N)C#N)c1nccnc1C(C)=O
  EC50: > 200 µM
  IC50: 11.2 µM

## Cc1cc(NS(=O)(=O)c2ccc(N=[N+]([O-])c3ccc(S(=O)(=O)Nc4cc(C)on4)cc3)cc2)no1
  EC50: > 200 µM
  IC50: > 200 µM

## CCOC(=O)C(NS(=O)(=O)c1ccccc1)(C(F)(F)F)P(=O)(OCC(C)C)OCC(C)C (stereo not drawn)
  EC50: > 200 µM
  IC50: 64.6 µM

## CC1(C)C2CCC1(CS(=O)(=O)O)C(=O)C2 (stereo not drawn)
  EC50: > 200 µM
  IC50: > 200 µM

## C[C@@H]1OC(=O)N2CCCC(=C3SCCCS3)C12 (stereo partly drawn)
  outcome: inactive

## COc1ccc2nc(NC(=O)C(=O)C(C#N)c3ccc(CC#N)cc3)sc2c1 (stereo not drawn)
  outcome: inactive

## CCN(CC)Cc1c2c(O)c3c(O)c(C)c4c(c3c1O)C(=O)C(C)(O/C=C/C(OC)C(C)C(OC(C)=O)C(C)C(O)C(C)C(O)C(C)/C=C/C=C(\C)C(=O)N2)O4 (stereo not drawn)
  EC50: > 200 µM
  IC50: 33.1 µM

## CC1=NNC(=O)C1C1CC(c2c[nH]c3ccccc23)=NNC1=S (stereo not drawn)
  EC50: > 100 µM
  IC50: > 100 µM

## COc1ccc(-c2nc(-c3cnccn3)n(C3OC(CO)C(O)C(O)C3O)n2)cc1 (stereo not drawn)
  EC50: > 200 µM
  IC50: > 200 µM

## O=C1CCn2c([nH]c3cccc4cccc2c43)=N1
  EC50: > 151 µM
  IC50: 148 µM

## O=c1c2ccccc2oc2ccccc12 (tested in a mixture with another compound)
  EC50: > 11 µM
  IC50: 0.776 µM

## OC/C=C/c1ccc(Cl)cc1
  outcome: inactive

## CN(CC(O)C(O)C(O)C(O)CO)CN1C(=O)C(=O)c2ccccc21 (stereo not drawn)
  EC50: > 200 µM
  IC50: 34.7 µM

## CC(C)SSC(=O)N1CCCC1C(=O)O (stereo not drawn)
  EC50: > 200 µM
  IC50: > 200 µM

## Cc1ccc(Nc2nc(=O)[nH]c(=O)[nH]2)cc1N=[N+]=[N-]
  EC50: > 200 µM
  IC50: > 200 µM

## CC1CC(=O)C2CC(CO)=CCCC2C1(C)CC/C(=C/CO)CO (stereo not drawn)
  outcome: inactive

## NC1(S(=O)(=O)O)c2ccccc2-c2ccccc21
  EC50: > 200 µM
  IC50: 151 µM

## O=C(S)C(=O)Cc1nnn(-c2ccccc2)c1-c1ccccc1
  EC50: > 245 µM
  IC50: > 245 µM

## CCOC(=O)/C(C#N)=C(O)/C(=C\c1ccc(Br)cc1)NC(=O)c1ccccc1
  EC50: > 562 µM
  IC50: > 562 µM

## [O]=[Sb][c]1ccc(Cl)cc1
  EC50: > 200 µM
  IC50: 2.63 µM

## CCC12CCCN3CCC4(C(=Nc5cc(OC)ccc54)CC1)C32 (stereo not drawn)
  outcome: inactive

## CCOC(=O)C1=C(Nc2ccc(Cl)cc2Cl)OCC1=O
  outcome: inactive

## O=c1cc(-c2ccccc2)ss1
  EC50: > 200 µM
  IC50: 105 µM

## CC1(C)CCC2(C(=O)OC3OC(CO)C(O)C(O)C3O)CCC3(CO)C(=CCC4C5(C)CC(O)C(O)C(C)(C(=O)OC6OC(CO)C(O)C(O)C6O)C5CCC43C)C2C1 (stereo not drawn)
  outcome: inactive

## O=C(O)CN1CCN2CCOCCN(CC1)CCN(CC(=O)O)CC2
  EC50: > 200 µM
  IC50: > 200 µM
